ChEMBL document CHEMBL1201862, “PubChem BioAssay data set” (2004)
Active and inactive are the calls of the source.

Legend:
Fatty acid synthase [1] = molecular target: T1, Fatty acid synthase (Homo sapiens, UniProt P49327); assay: inhibition of human FAS-TE enzyme activity – biochemical, kinetic fluorescence intensity, dose response (AID 624326); format: functional;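 note: rate of fluorescence rise from hydrolysis of a fluorogenic O-methyl fluorescein ester substrate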
Protein RecA = molecular target: T2, Protein RecA (Mycobacterium tuberculosis, UniProt P9WHJ3); assay: Fluorescence Cell-Free Homogeneous Dose Retest to Identify Inhibitors of RecA-Intein Splicing Activity. [Related pubchem assays (depositor defined):AID2097, AID2223, AID489010, AID492950]; format: functional
T2 sequence (P9WHJ3 whole entry): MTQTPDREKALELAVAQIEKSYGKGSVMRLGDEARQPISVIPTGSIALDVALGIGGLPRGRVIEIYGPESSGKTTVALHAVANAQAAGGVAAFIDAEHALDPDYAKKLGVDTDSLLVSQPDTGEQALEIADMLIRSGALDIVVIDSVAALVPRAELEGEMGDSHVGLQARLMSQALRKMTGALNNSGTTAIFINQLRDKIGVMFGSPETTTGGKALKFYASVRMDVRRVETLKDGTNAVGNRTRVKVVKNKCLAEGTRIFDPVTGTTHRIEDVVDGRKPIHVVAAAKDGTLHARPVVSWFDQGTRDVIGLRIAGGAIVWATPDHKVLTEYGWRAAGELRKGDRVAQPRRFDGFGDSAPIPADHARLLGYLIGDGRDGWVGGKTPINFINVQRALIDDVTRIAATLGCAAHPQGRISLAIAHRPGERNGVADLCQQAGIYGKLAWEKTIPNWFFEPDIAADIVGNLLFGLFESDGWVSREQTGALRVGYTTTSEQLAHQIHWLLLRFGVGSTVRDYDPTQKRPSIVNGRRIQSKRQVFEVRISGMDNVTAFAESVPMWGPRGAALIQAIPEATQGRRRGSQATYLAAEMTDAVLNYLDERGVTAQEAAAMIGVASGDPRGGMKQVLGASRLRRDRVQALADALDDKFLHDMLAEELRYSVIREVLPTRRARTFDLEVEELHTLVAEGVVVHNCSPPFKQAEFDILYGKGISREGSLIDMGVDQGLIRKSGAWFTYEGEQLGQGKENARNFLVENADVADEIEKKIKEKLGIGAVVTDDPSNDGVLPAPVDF

Fatty acid synthase [2] = molecular target: T1, Fatty acid synthase; assay: inhibition of human FAS-TE enzyme activity – biochemical, endpoint fluorescence intensity, uHTS hits, dose response (AID 624327); format: functional;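 note: fluorescence from hydrolysis of an O-methyl fluorescein acyl ester substrate by the enzyme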
[3] = molecular target: T3, Replicative DNA helicase DnaB (Mycobacterium tuberculosis, UniProt P9WMR3); assay: DnaB intein splicing inhibitors, dose response, biochemical, cell-free fluorescence (AID 449749); format: functional
T3 sequence (P9WMR3 whole entry): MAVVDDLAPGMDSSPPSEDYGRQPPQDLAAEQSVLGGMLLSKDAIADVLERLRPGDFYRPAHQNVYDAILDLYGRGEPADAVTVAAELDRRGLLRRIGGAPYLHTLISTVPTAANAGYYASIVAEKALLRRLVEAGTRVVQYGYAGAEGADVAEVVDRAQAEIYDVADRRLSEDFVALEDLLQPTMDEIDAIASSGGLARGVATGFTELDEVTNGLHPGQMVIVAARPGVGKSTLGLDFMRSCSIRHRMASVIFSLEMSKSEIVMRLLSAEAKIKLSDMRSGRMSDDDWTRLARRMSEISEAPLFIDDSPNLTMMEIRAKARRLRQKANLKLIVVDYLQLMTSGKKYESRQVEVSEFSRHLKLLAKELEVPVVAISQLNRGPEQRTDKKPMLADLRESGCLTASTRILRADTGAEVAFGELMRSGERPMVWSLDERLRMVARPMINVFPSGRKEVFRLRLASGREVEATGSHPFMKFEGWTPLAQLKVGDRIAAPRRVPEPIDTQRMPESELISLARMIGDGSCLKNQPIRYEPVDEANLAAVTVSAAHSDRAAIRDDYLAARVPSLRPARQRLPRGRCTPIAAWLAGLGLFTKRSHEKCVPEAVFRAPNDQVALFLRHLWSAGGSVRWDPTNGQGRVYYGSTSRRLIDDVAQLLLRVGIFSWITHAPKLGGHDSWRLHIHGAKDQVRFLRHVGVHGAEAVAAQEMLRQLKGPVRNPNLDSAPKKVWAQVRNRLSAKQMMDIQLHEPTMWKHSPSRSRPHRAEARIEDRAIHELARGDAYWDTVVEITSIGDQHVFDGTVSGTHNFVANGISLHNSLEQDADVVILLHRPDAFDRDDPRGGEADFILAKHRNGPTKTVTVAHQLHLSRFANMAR

Streptokinase A = molecular target: T4, Streptokinase A (Streptococcus pyogenes serotype M1, UniProt P10520); assay: viability-normalized secreted streptokinase activity reduction – plasminogen activation absorbance, OD405, dose response (AID 1914); format: functional, Streptococcus pyogenes M1 GAS;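 note: secreted streptokinase activity via plasminogen activation per viability signal from cell pellet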
T4 sequence (P10520 whole entry): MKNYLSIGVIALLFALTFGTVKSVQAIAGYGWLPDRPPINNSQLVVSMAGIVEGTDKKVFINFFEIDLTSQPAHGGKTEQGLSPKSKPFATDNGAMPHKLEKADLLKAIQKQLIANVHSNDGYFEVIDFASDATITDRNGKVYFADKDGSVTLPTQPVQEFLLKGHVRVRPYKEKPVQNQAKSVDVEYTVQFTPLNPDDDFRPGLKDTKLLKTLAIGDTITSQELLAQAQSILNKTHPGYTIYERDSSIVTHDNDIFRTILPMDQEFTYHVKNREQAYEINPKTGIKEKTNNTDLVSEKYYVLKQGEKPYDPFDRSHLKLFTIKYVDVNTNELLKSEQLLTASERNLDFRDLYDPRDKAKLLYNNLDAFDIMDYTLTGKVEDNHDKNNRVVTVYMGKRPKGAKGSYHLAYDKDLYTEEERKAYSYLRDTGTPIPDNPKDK

[4] = tested on: Streptococcus sp. 'group A'; assay: Streptococcus pyogenes SK(-)GAS viability under kanamycin – luminescence, BacTiterGlo, confirmation, counter-screen for streptokinase expression inhibitor project, dose response (AID 1900); format: functional, organism-based
Streptococcus = assay: GAS UMAA2166 growth inhibition – luminescence, BacTiterGlo, counter-screen for streptokinase expression inhibitor project, dose response (AID 1915); format: functional, organism-based;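 note: potency for reduction of bacterial viability or growth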
[5] = molecular target: T5, Polyadenylate-binding protein 1 (Homo sapiens, UniProt P11940); assay: MLLE binding blockers, Cy5 peptide tracer – biochemical, fluorescence polarization, Cy5-PAM2 peptide, secondary, miRNA deadenylation inhibitor project, dose response (AID 602260); format: functional; details: read-out: IC50_Mean
T5 sequence (P11940 whole entry, the tested form may be a part): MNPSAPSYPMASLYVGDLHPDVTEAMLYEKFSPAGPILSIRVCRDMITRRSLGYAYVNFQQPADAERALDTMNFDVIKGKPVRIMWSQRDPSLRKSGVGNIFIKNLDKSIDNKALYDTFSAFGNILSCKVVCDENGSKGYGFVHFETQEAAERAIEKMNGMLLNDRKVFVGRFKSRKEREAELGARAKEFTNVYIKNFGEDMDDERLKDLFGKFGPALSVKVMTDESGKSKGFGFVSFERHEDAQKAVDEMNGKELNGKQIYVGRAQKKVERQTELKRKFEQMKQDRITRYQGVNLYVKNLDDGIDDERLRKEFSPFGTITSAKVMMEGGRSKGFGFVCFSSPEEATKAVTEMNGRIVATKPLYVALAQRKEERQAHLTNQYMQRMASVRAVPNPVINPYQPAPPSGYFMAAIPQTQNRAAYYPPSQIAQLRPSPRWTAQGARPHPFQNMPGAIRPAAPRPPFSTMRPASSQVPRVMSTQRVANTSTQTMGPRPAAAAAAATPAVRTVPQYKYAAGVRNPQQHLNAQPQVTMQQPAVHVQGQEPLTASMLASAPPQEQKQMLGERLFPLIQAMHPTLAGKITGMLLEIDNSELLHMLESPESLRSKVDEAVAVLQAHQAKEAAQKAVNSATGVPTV

[6] = molecular target: T5, Polyadenylate-binding protein 1; assay: MLLE domain peptide-binding blockers, IC50 – biochemical, fluorescence polarization, FITC-PAM2 peptide, dose response (AID 602259); format: functional; details: read-out: IC50_Mean
Protein skinhead-1 = molecular target: T6, Protein skinhead-1 (Caenorhabditis elegans, UniProt P34707); format: functional
T6 sequence (P34707 whole entry): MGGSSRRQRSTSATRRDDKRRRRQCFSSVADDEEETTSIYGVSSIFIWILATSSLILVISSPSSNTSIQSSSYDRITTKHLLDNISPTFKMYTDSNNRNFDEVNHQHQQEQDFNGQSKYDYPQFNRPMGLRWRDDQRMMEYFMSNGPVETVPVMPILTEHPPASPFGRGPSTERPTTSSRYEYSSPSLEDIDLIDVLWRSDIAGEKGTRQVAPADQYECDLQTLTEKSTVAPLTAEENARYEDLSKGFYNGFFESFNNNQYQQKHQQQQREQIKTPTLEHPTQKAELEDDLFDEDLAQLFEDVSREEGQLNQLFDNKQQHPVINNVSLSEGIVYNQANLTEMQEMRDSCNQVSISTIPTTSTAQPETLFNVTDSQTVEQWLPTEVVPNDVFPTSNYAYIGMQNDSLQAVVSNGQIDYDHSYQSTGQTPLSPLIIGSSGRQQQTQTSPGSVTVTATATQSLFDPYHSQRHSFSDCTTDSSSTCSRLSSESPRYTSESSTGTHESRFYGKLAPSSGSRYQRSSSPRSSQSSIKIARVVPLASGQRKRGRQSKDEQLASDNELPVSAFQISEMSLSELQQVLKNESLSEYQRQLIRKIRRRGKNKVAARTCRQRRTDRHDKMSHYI

[7] = Luminescence Cell-Based Dose Confirmation HTS to Identify Inhibitors of Platelet Dense Granule Release. [Related pubchem assays: 1663 (Primary HTS), 1678 (Summary of Project)]; format: functional
[8] = molecular target: Luciferin 4-monooxygenase (Photinus pyralis, UniProt P08659); assay: inhibition of purified Photinus pyralis luciferase – biochemical, luminescence, dose response (AID 1891)
Luciferin 4-monooxygenase, sequence (P08659 whole entry, the tested form may be a part): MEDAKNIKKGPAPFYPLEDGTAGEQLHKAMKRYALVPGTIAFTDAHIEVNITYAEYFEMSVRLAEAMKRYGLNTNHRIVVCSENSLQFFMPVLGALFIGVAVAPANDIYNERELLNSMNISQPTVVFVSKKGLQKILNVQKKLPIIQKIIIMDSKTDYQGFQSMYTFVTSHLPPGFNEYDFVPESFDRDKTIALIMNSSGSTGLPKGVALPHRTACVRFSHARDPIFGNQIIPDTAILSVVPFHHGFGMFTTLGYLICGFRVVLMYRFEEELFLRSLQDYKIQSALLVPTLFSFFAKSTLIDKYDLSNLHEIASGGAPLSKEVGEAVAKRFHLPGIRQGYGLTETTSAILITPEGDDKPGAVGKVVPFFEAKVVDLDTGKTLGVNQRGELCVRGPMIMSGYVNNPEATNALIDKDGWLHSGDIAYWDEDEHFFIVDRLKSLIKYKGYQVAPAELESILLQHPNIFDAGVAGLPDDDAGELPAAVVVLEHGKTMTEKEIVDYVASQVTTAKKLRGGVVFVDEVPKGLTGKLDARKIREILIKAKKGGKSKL

[9] = blockers of HIV-1 envelope-mediated cell-cell fusion – cherry-pick, dose response (AID 652057); format: functional, cell-based

T1 sequence (P49327 whole entry): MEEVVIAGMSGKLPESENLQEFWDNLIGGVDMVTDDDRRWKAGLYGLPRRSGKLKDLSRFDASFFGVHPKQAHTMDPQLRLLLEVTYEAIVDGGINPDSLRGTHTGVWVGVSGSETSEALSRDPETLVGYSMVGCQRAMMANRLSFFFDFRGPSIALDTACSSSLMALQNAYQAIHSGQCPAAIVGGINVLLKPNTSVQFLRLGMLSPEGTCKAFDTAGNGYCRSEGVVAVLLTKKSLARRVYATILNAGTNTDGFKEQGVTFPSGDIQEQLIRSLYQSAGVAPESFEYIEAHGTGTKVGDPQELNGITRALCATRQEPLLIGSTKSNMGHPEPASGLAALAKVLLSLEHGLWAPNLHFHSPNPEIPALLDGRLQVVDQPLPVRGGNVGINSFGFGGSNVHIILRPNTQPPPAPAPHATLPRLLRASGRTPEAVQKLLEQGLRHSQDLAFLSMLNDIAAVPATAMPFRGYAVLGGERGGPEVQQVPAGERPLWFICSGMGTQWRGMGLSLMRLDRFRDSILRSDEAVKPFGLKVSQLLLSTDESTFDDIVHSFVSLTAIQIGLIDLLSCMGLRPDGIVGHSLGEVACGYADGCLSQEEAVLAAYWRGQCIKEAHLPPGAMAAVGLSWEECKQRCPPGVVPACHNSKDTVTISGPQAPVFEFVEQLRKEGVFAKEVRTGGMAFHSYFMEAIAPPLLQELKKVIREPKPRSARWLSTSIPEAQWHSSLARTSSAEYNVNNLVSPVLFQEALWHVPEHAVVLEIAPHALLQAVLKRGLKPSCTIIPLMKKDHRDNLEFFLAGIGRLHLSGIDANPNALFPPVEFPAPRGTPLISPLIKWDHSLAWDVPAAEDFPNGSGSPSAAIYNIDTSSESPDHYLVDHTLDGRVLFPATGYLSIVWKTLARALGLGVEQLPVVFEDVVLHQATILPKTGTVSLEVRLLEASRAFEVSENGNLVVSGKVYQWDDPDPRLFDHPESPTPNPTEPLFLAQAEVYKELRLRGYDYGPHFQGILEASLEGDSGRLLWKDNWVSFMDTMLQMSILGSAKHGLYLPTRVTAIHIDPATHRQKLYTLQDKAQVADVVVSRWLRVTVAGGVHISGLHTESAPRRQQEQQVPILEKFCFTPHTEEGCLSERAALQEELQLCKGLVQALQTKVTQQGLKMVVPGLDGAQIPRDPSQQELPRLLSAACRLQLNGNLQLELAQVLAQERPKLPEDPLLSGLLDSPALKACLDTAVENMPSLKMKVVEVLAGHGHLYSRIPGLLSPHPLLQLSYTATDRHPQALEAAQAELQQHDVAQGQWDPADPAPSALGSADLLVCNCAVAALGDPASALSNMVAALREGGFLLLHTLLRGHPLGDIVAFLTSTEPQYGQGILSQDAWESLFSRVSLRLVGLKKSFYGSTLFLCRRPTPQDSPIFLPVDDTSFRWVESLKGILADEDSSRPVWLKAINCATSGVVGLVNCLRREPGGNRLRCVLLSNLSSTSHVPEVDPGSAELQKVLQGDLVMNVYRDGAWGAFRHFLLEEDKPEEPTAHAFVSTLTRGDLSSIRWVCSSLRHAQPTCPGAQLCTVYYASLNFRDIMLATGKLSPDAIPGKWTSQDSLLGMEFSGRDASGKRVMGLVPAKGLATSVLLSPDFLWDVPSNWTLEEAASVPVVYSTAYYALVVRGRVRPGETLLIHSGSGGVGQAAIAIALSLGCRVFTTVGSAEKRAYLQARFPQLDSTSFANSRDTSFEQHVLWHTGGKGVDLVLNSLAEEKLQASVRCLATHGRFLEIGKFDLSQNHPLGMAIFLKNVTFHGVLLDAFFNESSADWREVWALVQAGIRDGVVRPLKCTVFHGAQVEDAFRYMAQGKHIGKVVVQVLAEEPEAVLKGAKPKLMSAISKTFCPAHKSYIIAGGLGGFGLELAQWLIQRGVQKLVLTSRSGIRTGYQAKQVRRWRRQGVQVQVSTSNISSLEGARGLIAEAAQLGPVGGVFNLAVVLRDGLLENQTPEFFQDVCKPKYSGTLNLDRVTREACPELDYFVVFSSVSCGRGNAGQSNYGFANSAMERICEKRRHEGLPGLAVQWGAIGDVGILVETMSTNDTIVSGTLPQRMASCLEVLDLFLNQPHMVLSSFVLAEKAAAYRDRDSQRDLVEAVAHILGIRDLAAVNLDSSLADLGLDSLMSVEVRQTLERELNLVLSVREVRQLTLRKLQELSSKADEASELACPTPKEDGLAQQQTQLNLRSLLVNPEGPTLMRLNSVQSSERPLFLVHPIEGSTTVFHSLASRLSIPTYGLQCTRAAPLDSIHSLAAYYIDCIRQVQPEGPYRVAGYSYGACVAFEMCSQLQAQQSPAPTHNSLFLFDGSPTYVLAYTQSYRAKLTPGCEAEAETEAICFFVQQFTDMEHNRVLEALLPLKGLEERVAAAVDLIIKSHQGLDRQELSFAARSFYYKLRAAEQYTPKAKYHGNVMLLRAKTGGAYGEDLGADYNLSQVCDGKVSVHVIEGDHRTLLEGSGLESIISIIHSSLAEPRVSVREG

With `N#Cc1cc(-c2ccccc2)nc(Oc2ccccc2)n1` the IC50 (Fatty acid synthase [1]) was 12.9 µM (active), the EC50 (Protein RecA) was 17.7 µM (active) and the IC50 (Fatty acid synthase [2]) was 12.2 µM (active). The AC50 [3] was 6.79 µM (active).

For `O=[N+]([O-])c1ccc(NCc2ccc(Cl)cc2)c2ccncc12`, the EC50 (Streptokinase A) was 15.1 µM (active), the EC50 [4] was 32.3 µM (active) and the IC50 (Fatty acid synthase [1]) was 3.75 µM (active). For the same compound, the EC50 (Streptococcus) was > 150 µM (not active) and the IC50 (Fatty acid synthase [2]) was 3.17 µM (active).

In the case of `COc1cc2ncc(S(=O)(=O)c3ccccc3)c(N3CCC4(CC3)OCCO4)c2cc1OC`, the IC50 (Fatty acid synthase [1]) is reported as 1.59 µM (active) and the IC50 (Fatty acid synthase [2]) is reported as 2.55 µM (active).

With `CC(NC(=O)COC(=O)c1cc([N+](=O)[O-])ccc1N1CCOCC1)c1ccccc1` (stereo not drawn) the IC50 (Fatty acid synthase [1]) was 2.93 µM (active) and the IC50 (Fatty acid synthase [2]) was 4.64 µM (active).

For `CN(C)S(=O)(=O)c1cccc(NC(=O)c2cc([N+](=O)[O-])ccc2N2CCCCC2)c1`, the IC50 (Fatty acid synthase [1]) was 12.2 µM (active) and the IC50 (Fatty acid synthase [2]) was 13.1 µM (active).

With `COc1ccc(N2C(=O)NC3CC2(C)Oc2ccc(Br)cc23)cc1OC` (stereo not drawn) the IC50 (Fatty acid synthase [1]) was 5.33 µM (active) and the IC50 (Fatty acid synthase [2]) was 4.93 µM (active).

For `O=C(NCCc1cccc(Cl)c1)c1ccc(Cl)c([N+](=O)[O-])c1`, the IC50 (Fatty acid synthase [1]) was 9.95 µM (active) and the IC50 (Fatty acid synthase [2]) was 9.28 µM (active).

For `O=[N+]([O-])c1ccc(CSc2ccc(S(=O)(=O)N3CCOCC3)cn2)cc1`, the IC50 [5] was > 66 µM (inactive), the IC50 (Fatty acid synthase [1]) was 4.09 µM (active) and the IC50 [6] was > 66 µM (inactive). For the same compound, the IC50 (Fatty acid synthase [2]) was 13.4 µM (active).

With `Cc1onc(-c2c(F)cccc2Cl)c1C(=O)NC(=S)NC1CCS(=O)(=O)C1` (stereo not drawn) the IC50 [5] was > 66 µM (inactive) and the IC50 [6] was > 66 µM (inactive).

With `COc1ccc(C2(CNC(=O)c3cccc([N+](=O)[O-])c3)CCCCC2)cc1OC` the IC50 (Fatty acid synthase [1]) was 10.2 µM (active) and the IC50 (Fatty acid synthase [2]) was 14.9 µM (active).

For `COc1ccc(C(=O)NCc2ccc3c(c2)cc(C)n3C)cc1`, the IC50 [5] was > 66 µM (inactive), the IC50 (Protein skinhead-1) was > 100 µM (inactive) and the EC50 [7] was > 112 µM (not active). For the same compound, the IC50 [6] was > 66 µM (inactive) and the EC50 [8] was > 112 µM (not active).

In the case of `c1cc2c3c(cccc3c1)NC1(CCCC1)N2`, the IC50 [5] is reported as > 66 µM (inactive) and the IC50 [6] is reported as > 66 µM (inactive).

For `C[C@H]1CN([C@@H](C)CO)C(=O)c2cccc(NS(=O)(=O)c3ccc(Cl)cc3)c2O[C@@H]1CN(C)Cc1ccc(C(F)(F)F)cc1`, the AC50 [9] was 29 µM (active).

With `COc1ccc2c3c(n(C)c2c1)[C@@H](CO)N(C(=O)Nc1ccc(F)cc1)CC31CCN(Cc2cccc(F)c2)CC1` the AC50 [9] was < 0.26 µM (active).

With `Cc1cc(Cl)ccc1NC(=O)CCC(=O)N/N=C/c1cc([N+](=O)[O-])ccc1O` the IC50 (Fatty acid synthase [1]) was 8.57 µM (active) and the IC50 (Fatty acid synthase [2]) was 12.8 µM (active).
